PubChem BioAssay (NCI)
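These data come from cells grown in 96-well plates and exposed to compound for 48 hours at five concentrations. TGI denotes the concentration required for complete inhibition of growth.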

Key:
Assay in all cases: NCI tumour cell line growth inhibition, 48 h
LXFL 529 NSCLC = test system: LXFL 529 NSCLC
CCRF-CEM leukemia = test system: CCRF-CEM leukemia
EKVX NSCLC = test system: EKVX NSCLC
KM20L2 colon = test system: KM20L2 colon
ACHN renal = test system: ACHN renal
OVCAR-8 ovarian = test system: OVCAR-8 ovarian
SK-OV-3 ovarian = test system: SK-OV-3 ovarian
NCI-H23 lung = test system: NCI-H23 lung
UACC-257 melanoma = test system: UACC-257 melanoma
SK-MEL-2 melanoma = test system: SK-MEL-2 melanoma
DLD-1 colon = test system: DLD-1 colon
K-562 leukemia = test system: K-562 leukemia
SN12C renal = test system: SN12C renal
SK-MEL-5 melanoma = test system: SK-MEL-5 melanoma
IGROV1 ovarian = test system: IGROV1 ovarian
OVCAR-4 ovarian = test system: OVCAR-4 ovarian
SNB-75 CNS = test system: SNB-75 CNS
SR leukemia = test system: SR leukemia
HCT-15 colon = test system: HCT-15 colon
TK-10 renal = test system: TK-10 renal
NCI-H460 lung = test system: NCI-H460 lung
786-0 renal = test system: 786-0 renal
CAKI-1 renal = test system: CAKI-1 renal
NCI-H226 lung = test system: NCI-H226 lung
M14 melanoma = test system: M14 melanoma
COLO 205 colon = test system: COLO 205 colon
SNB-78 CNS = test system: SNB-78 CNS
SNB-19 CNS = test system: SNB-19 CNS
HL-60(TB) leukemia = test system: HL-60(TB) leukemia
UO-31 renal = test system: UO-31 renal
SF-295 CNS = test system: SF-295 CNS
NCI-H522 lung = test system: NCI-H522 lung
HOP-18 NSCLC = test system: HOP-18 NSCLC
SW-620 colon = test system: SW-620 colon
OVCAR-3 ovarian = test system: OVCAR-3 ovarian
MOLT-4 leukemia = test system: MOLT-4 leukemia
DMS 273 small cell lung = test system: DMS 273 small cell lung
OVCAR-5 ovarian = test system: OVCAR-5 ovarian
U251 CNS = test system: U251 CNS
MALME-3M melanoma = test system: MALME-3M melanoma
HOP-62 NSCLC = test system: HOP-62 NSCLC
KM12 colon = test system: KM12 colon
XF 498 CNS = test system: XF 498 CNS
HCT-116 colon = test system: HCT-116 colon
DMS 114 small cell lung = test system: DMS 114 small cell lung
RXF-631 renal = test system: RXF-631 renal
UACC-62 melanoma = test system: UACC-62 melanoma
RXF 393 renal = test system: RXF 393 renal
LOX IMVI melanoma = test system: LOX IMVI melanoma
A498 renal = test system: A498 renal
M19-MEL melanoma = test system: M19-MEL melanoma
SF-268 CNS = test system: SF-268 CNS
A549 NSCLC = test system: A549 NSCLC
HT29 colon = test system: HT29 colon
HCC-2998 colon = test system: HCC-2998 colon
SF-539 CNS = test system: SF-539 CNS
SK-MEL-28 melanoma = test system: SK-MEL-28 melanoma
NCI/ADR-RES ovarian = test system: NCI/ADR-RES ovarian
P388/ADR leukemia = test system: P388/ADR leukemia
SN12K1 renal = test system: SN12K1 renal
MDA-N = test system: MDA-N
RPMI-8226 leukemia = test system: RPMI-8226 leukemia
PC-3 prostate = test system: PC-3 prostate
HS 578T breast = test system: HS 578T breast
DU-145 prostate = test system: DU-145 prostate
BT-549 breast = test system: BT-549 breast
T-47D breast = test system: T-47D breast
HOP-92 NSCLC = test system: HOP-92 NSCLC
P388 leukemia = test system: P388 leukemia
MDA-MB-231 breast = test system: MDA-MB-231 breast
MCF7 breast = test system: MCF7 breast
MDA-MB-435 = test system: MDA-MB-435

## COC(=O)/C(=N\NC(N)=O)C(C(=O)C=C(C)C)C(=O)C(=O)Nc1ccc(Cl)c(Cl)c1 (stereo unspecified)
LXFL 529 NSCLC
  TGI: > 100 µM
CCRF-CEM leukemia
  TGI: > 100 µM
EKVX NSCLC
  TGI: > 100 µM
KM20L2 colon
  TGI: > 100 µM
ACHN renal
  TGI: > 100 µM
OVCAR-8 ovarian
  TGI: > 100 µM
SK-OV-3 ovarian
  TGI: > 100 µM
NCI-H23 lung
  TGI: > 100 µM
UACC-257 melanoma
  TGI: > 100 µM
SK-MEL-2 melanoma
  TGI: > 100 µM
DLD-1 colon
  TGI: > 100 µM
K-562 leukemia
  TGI: > 100 µM
SN12C renal
  TGI: > 100 µM
SK-MEL-5 melanoma
  TGI: > 100 µM
IGROV1 ovarian
  TGI: > 100 µM
OVCAR-4 ovarian
  TGI: > 100 µM
SNB-75 CNS
  TGI: > 100 µM
SR leukemia
  TGI: > 100 µM
HCT-15 colon
  TGI: > 100 µM
TK-10 renal
  TGI: > 100 µM
NCI-H460 lung
  TGI: > 100 µM
786-0 renal
  TGI: > 100 µM
CAKI-1 renal
  TGI: > 100 µM
NCI-H226 lung
  TGI: > 100 µM
M14 melanoma
  TGI: > 100 µM
COLO 205 colon
  TGI: > 100 µM
SNB-78 CNS
  TGI: > 100 µM
SNB-19 CNS
  TGI: > 100 µM
HL-60(TB) leukemia
  TGI: > 100 µM
UO-31 renal
  TGI: > 100 µM
SF-295 CNS
  TGI: > 100 µM
NCI-H522 lung
  TGI: > 100 µM
HOP-18 NSCLC
  TGI: > 100 µM
SW-620 colon
  TGI: > 100 µM
OVCAR-3 ovarian
  TGI: > 100 µM
MOLT-4 leukemia
  TGI: > 100 µM
DMS 273 small cell lung
  TGI: > 100 µM
OVCAR-5 ovarian
  TGI: > 100 µM
U251 CNS
  TGI: > 100 µM
MALME-3M melanoma
  TGI: > 100 µM
HOP-62 NSCLC
  TGI: > 100 µM
KM12 colon
  TGI: > 100 µM
XF 498 CNS
  TGI: > 100 µM
HCT-116 colon
  TGI: > 100 µM
DMS 114 small cell lung
  TGI: > 100 µM
RXF-631 renal
  TGI: > 100 µM
UACC-62 melanoma
  TGI: > 100 µM
RXF 393 renal
  TGI: > 100 µM
LOX IMVI melanoma
  TGI: > 100 µM
A498 renal
  TGI: > 100 µM
M19-MEL melanoma
  TGI: > 100 µM
SF-268 CNS
  TGI: > 100 µM
A549 NSCLC
  TGI: > 100 µM
HT29 colon
  TGI: > 100 µM
HCC-2998 colon
  TGI: > 100 µM
SF-539 CNS
  TGI: > 100 µM
SK-MEL-28 melanoma
  TGI: > 100 µM

## CCCCCCCCOC(=O)c1cc([N+](=O)[O-])c(Sc2ncnc3nc[nH]c23)c([N+](=O)[O-])c1
CCRF-CEM leukemia
  TGI: 2.68 µM
EKVX NSCLC
  TGI: 26.8 µM
KM20L2 colon
  TGI: 9.22 µM
NCI/ADR-RES ovarian
  TGI: 25.7 µM
ACHN renal
  TGI: 10.2 µM
P388/ADR leukemia
  TGI: 0.458 µM
SN12K1 renal
  TGI: 2.64 µM
MDA-N
  TGI: 22.5 µM
OVCAR-8 ovarian
  TGI: 10.1 µM
RPMI-8226 leukemia
  TGI: 8.54 µM
SK-OV-3 ovarian
  TGI: 25.3 µM
NCI-H23 lung
  TGI: 11.7 µM
UACC-257 melanoma
  TGI: 28 µM
PC-3 prostate
  TGI: 13.8 µM
SK-MEL-2 melanoma
  TGI: 17.7 µM
HS 578T breast
  TGI: 70.9 µM
DLD-1 colon
  TGI: 2.94 µM
K-562 leukemia
  TGI: 7.8 µM
SN12C renal
  TGI: 7.34 µM
SK-MEL-5 melanoma
  TGI: 18.4 µM
IGROV1 ovarian
  TGI: 16 µM
OVCAR-4 ovarian
  TGI: 13.5 µM
DU-145 prostate
  TGI: 18.6 µM
BT-549 breast
  TGI: 25.7 µM
SNB-75 CNS
  TGI: 9.27 µM
HCT-15 colon
  TGI: 20.6 µM
TK-10 renal
  TGI: 8.58 µM
T-47D breast
  TGI: 3.31 µM
NCI-H460 lung
  TGI: 17.4 µM
786-0 renal
  TGI: > 37.2 µM
CAKI-1 renal
  TGI: 17.7 µM
NCI-H226 lung
  TGI: 13.5 µM
HOP-92 NSCLC
  TGI: 6.32 µM
M14 melanoma
  TGI: 26.9 µM
COLO 205 colon
  TGI: 3.68 µM
SNB-78 CNS
  TGI: 10.5 µM
SNB-19 CNS
  TGI: 32.9 µM
HL-60(TB) leukemia
  TGI: 9.82 µM
UO-31 renal
  TGI: 19.9 µM
P388 leukemia
  TGI: 0.447 µM
SF-295 CNS
  TGI: 11.2 µM
NCI-H522 lung
  TGI: 2.41 µM
HOP-18 NSCLC
  TGI: 11.1 µM
SW-620 colon
  TGI: 8.31 µM
OVCAR-3 ovarian
  TGI: 4.01 µM
MOLT-4 leukemia
  TGI: 16.2 µM
DMS 273 small cell lung
  TGI: 1.57 µM
OVCAR-5 ovarian
  TGI: 13.8 µM
U251 CNS
  TGI: 17.3 µM
MALME-3M melanoma
  TGI: 19.9 µM
HOP-62 NSCLC
  TGI: 21.8 µM
KM12 colon
  TGI: 18 µM
XF 498 CNS
  TGI: 2.24 µM
HCT-116 colon
  TGI: 5.35 µM
DMS 114 small cell lung
  TGI: 1.81 µM
MDA-MB-231 breast
  TGI: > 31.6 µM
UACC-62 melanoma
  TGI: 17 µM
RXF 393 renal
  TGI: > 47.6 µM
LOX IMVI melanoma
  TGI: 1.24 µM
A498 renal
  TGI: 44.9 µM
MCF7 breast
  TGI: 12.1 µM
M19-MEL melanoma
  TGI: 12.9 µM
SF-268 CNS
  TGI: 8.47 µM
A549 NSCLC
  TGI: 27.3 µM
HT29 colon
  TGI: 4.87 µM
HCC-2998 colon
  TGI: 16.2 µM
SF-539 CNS
  TGI: 5.8 µM
SK-MEL-28 melanoma
  TGI: 42.8 µM
MDA-MB-435
  TGI: > 38.4 µM
